Test results published in article PMC6522510 (Nature Communications, 2019).

Columns and labels:
Parameters in all cases: species or system AML cell lines (8); Primary HTS, single concentration about 10 uM, Cell Titer Glo viability; log10 luminescence, per cent inhibition relative to cycloheximide control
Conditions in all cases: 72 h, relative to cycloheximide control, log10 luminescence; inhibitor
[1] = test system: CHRF288-11
[2] = test system: CMK
[3] = test system: CMS
[4] = test system: M07e
[5] = test system: ML-2
[6] = test system: MOLM-13
[7] = test system: MV4-11
[8] = test system: U937

Compound	CHRF288-11 %inh [1] [%]	CMK %inh [2] [%]	CMS %inh [3] [%]	M07e %inh [4] [%]	ML-2 %inh [5] [%]	MOLM-13 %inh [6] [%]	MV4-11 %inh [7] [%]	U937 %inh [8] [%]
Fc1ccc(-c2ncn(C3CCNCC3)c2-c2ccnc(Oc3ccc(Oc4ccccc4)cc3)n2)cc1 [SJ000573126-1, JB27026-104B1]	38.59	18.72	2.898	10.64	34.19	28.44	29.08	16.46
COc1ccc(-c2ccncc2)cc1C(N)=O [SJ000573127-1, R12444/16/1]	-1.562	5.063	5.051	1.948	2.021	4.454	-1.177	2.206
CNC(=O)c1cc(-c2ccc(F)cc2)cc(-c2ccc(S(=O)(=O)N3CCCC3)cc2)c1N [SJ000573128-1, R11976/170/3]	14.81	31.99	9.624	5.294	6.119	10.13	2.522	15.8
COc1ccc2cc(-c3c(-c4ccncc4)nc(-c4ccc([S+](C)[O-])cc4)n3C)ccc2c1 (stereo not shown) [SJ000573130-1, NJ44241-161A1]	0.3346	-2.307	-2.967	-4.153	-0.4869	-0.6311	-3.083	-2.991
Fc1ccc(-c2nc3n(c2-c2ccncc2)CCS3)cc1 [SJ000573131-1, RJA-12113-255 | U519/32/1 | SKF 86002]	-0.4036	1.491	-0.311	0.008042	0.01337	-3.313	-2.292	-2.013
c1cnn2ncc(-c3ccnc(NCCCN4CCOCC4)n3)c2c1 [SJ000573132-1, U14929/199/1]	17.57	3.496	12.25	4.031	4.815	36.05	15.28	21.78
CCS(=O)(=O)c1ccc(OC)c(Nc2ncc(-c3cccc(-c4ccccc4F)c3)o2)c1 [SJ000573133-1, U16399/42/1]	3.996	-2.911	-1.131	-0.6473	1.693	73.99	49.91	-2.484
Cc1ccc(Nc2ccnc(Nc3cccc(C(N)=O)c3)n2)cc1O [SJ000573134-1, R4218/174/1]	5.659	14.84	-1.873	3.53	3.588	95.23	65.12	-1.642
CNC(=O)c1cccc(C#Cc2cncnc2Nc2ccc(OCc3cccc(F)c3)c(Cl)c2)c1 [SJ000573135-1, U17545/42/1]	-0.4909	2.154	2.176	2.556	1.577	2.058	0.5885	0.8403
Cc1nc(-c2ccccc2)n2nc(NCCCN3CCOCC3)ncc12 [SJ000573136-1, U19891/100/1]	6.275	23.01	0.3241	-0.8598	5.663	7.46	3.076	1.344
N#Cc1cccc(Nc2ncc(-c3ccccc3)o2)c1 [SJ000573137-1, U15924/27/1]	-9.448	10.57	-1.613	-5.302	1.759	64.56	38.03	0.4025
CC1=C(C(=O)Nc2ccc3[nH]ncc3c2)C(c2ccc3ccccc3c2)CC(=O)N1 (stereo not shown) [SJ000573139-1, KG204183-124A1]	15.76	48.89	1.368	1.439	11.01	1.247	30.46	2.011
NS(=O)(=O)c1ccc(-c2ccc3c(NC(=O)C4CC4)n[nH]c3c2)cc1 [SJ000573140-1, VB100064-161A1]	4.361	-4.867	-3.489	-0.07238	0.5159	-3.649	-0.6023	-0.5779
CNC(=O)Oc1cc(C)c(/C=C/c2cncc(C(=O)NC)c2)c(C)c1 [SJ000573141-1, U11962/26/1]	7.117	8.893	-0.3622	6.045	1.2	3.548	1.51	0.6726
Nc1nccc(-c2c(-c3ccc(F)cc3)nn3cc(C(F)(F)F)ccc23)n1 [SJ000573142-1, U14741/95/1]	1.132	-0.4076	-0.8913	93.92	1.904	0.5656	-1.787	-1.917
N#Cc1ccc2c(-c3ccnc(NC4CC4)n3)c(-c3ccc(F)cc3)nn2c1 [SJ000573143-1, U15304/34/1]	-0.1104	2.803	2.587	7.135	1.142	2.3	-1.164	0.4809
Fc1ccc(-c2ncn(CCCN3CCOCC3)c2-c2ccncc2)cc1 [SJ000573144-1, LDD-19018-277B]	5.233	29.46	-0.05724	0.1764	2.361	2.986	-0.2277	-0.4661
O=C(Nc1n[nH]c2nc(-c3ccco3)c(Br)cc12)C1CC1 [SJ000573145-1, AG201339-071A1]	-1.607	0.1482	6.31	-5.829	-0.5766	0.2319	10.91	-0.3135
CN(C)CCCn1c(-c2nonc2N)nc2cnccc21 [SJ000573146-1, NB100580-138A1]	-1.122	9.262	-2.565	-3.074	-0.381	-2.29	-1.385	0.1912
O=C(Nc1n[nH]c2cc(-c3ccc(F)cc3)ccc12)C1CC1 [SJ000573147-1, VB100064-137A1]	23.72	55.62	-1.795	6.083	9.118	13.56	-2.4	28.55
O=C1NC(=O)C(c2ccc(Cl)cc2)=C1Nc1ccc(Cl)c(C(=O)O)c1 [SJ000573148-1, DH98298-170B2]	-1.873	-5.939	-1.744	-2.934	0.6305	-3.138	-6.646	-3.231
O=C(Nc1ccc(Oc2ccc3[nH]c(NC(=O)c4ccccc4)nc3c2)cc1)Nc1cc(C(F)(F)F)ccc1F [SJ000573149-1, T261/94/4]	9.652	59.46	32.92	22.27	33.71	108.7	91.44	43.21
CS(=O)(=O)CCNCc1ccc(-c2ccc3ncnc(Nc4ccc(OCc5cccc(F)c5)c(C(F)(F)F)c4)c3c2)o1 [SJ000573152-1, U14859/108/1]	2.26	-0.9918	-1.451	0.4672	2.813	2.035	3.001	2.673
